# “Also recorded” adds a separate entry of the source.
# Experiments:
# [1] = system: nAChRs on SuSC GABAergic terminals (crude synaptosomes); assay type: biochemical, mouse
# [2] = system: α6β2*-nAChR, crude striatal synaptosomes; assay type: biochemical, mouse
# [3] = system: α6* nAChRs, crude rat striatal synaptosomes; conditions: cited from earlier work
# α6β2* and α3β2* nAChR = conditions: cited from earlier work
substance,measurement,setting,value
α-conotoxin PIA [α-CtxPIA],effect on ACh-evoked [^3H]-GABA release (abstract),[1],did not affect [^3H]-GABA release
same,inhibition of ACh-stimulated [^3H]-GABA release by 100nM α-CtxPIA,[1],completely unable to inhibit
same,inhibition of ACh-stimulated [^3H]-GABA release by α-CtxPIA,[1],could not be reliably fit to an inhibition model; also recorded: no significant inhibition
same,inhibition of ACh-stimulated [^3H]-dopamine release,[2],24.2 ± 3.3%
same,reversibility of inhibition of DA release,[3],slowly reversible
same,IC50,"[3]; read-out: IC50, inhibition of DA release stimulated by nicotine or ACh",1.48 nM
same,subtypes inhibited by the α-conotoxin,α6β2* and α3β2* nAChR,selective inhibitor of α6β2*-nAChR
